Experimental data as given in patent US20080146576A1, “N-(1-Phthalazin-1-ylpiperidin-4-yl)amides as EP2 receptor modulators” (priority 2006, published 2008).
Read-outs that look alike come from different tables or passages of the source.

Tests used:
cumulus-oocyte complexes = assay: Cumulus expansion assay in vitro; format: cell-based, mice; conditions: competing with PGE2
Procedure: Folliculogenesis is induced in immature female mice (strain: CD1 (ICR) from Charles River) at an age of 14-18 days by a single dose (intraperitoneally) of 10 I.U. of PMSG (Pregnant Mare Serum Gonadotropin; Sigma G-4877, Batch 68H0909). 47-50 hours after the injection, the ovaries are removed and the cumulus-oocyte complexes are removed. The cumulus complex is not yet expanded at this stage.
The cumulus-oocyte complexes are then incubated with prostaglandin E2 (PGE2) (1 μM), vehicle control (ethanol) or test substances for 20-24 hours. Medium: alpha-MEM medium with 0.1 mM IBMX, pyruvates (0.23 mM), glutamines (2 mM), pen/strep (100 IU/ml pen. and 100 μg/ml strep.) and HSA (8 mg/ml). Cumulus expansion is then established through the division into four stages (according to Vanderhyden et al. Dev Biol. 1990 August; 140(2):307-317).

[1] = biological target: T1, human prostaglandin E2 (subtype EP2) receptor (Homo sapiens, UniProt P43116); assay: cAMP antagonism assay (HTRF cAMP, PGE2-stimulated cells); format: cell-based
T1 construct: host or cells: cells on a cell culture plate
T1 sequence (P43116 whole entry): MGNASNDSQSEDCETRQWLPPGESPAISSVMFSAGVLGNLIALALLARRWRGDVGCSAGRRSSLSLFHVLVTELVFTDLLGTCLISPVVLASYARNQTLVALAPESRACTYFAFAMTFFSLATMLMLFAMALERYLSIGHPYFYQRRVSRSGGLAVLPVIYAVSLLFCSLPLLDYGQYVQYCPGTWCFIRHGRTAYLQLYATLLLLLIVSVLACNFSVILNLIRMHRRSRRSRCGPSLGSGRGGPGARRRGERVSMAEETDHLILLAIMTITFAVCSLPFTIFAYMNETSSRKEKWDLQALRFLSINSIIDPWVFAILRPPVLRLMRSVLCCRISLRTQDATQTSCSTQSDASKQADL
Procedure: (§1) The binding of PGE2 to the EP2 subtype of the human PGE2 receptor induces activation of membrane-associated adenylate cyclases and leads to the formation of cAMP. In the presence of the phosphodiesterase inhibitor IBMX, cAMP which has accumulated due to this stimulation and been released by cell lysis is employed in a competitive detection method. In this assay, the cAMP in the lysate competes with cAMP-XL665 for binding of an Eu cryptate-labeled anti-cAMP antibody.
(§2) The two signals are measured in a suitable measuring instrument with a time lag, i.e. after the background fluorescence has declined.
(§3) The substance solutions (0.75 μl) containing 30% DMSO are introduced into an assay plate and dissolved in 16 μl of a KRSB+IBMX stimulation solution (1× Krebs-Ringer Bicarbonate Buffer; Sigma-Aldrich # K-4002; including 750 μM 3-isobutyl-1-methylxanthine Sigma-Aldrich # I-7018), and then 15 μl, thereof are transferred into a media-free cell culture plate which has been washed with KRSB shortly beforehand.
After preincubation at room temperature (RT) for 30 minutes, 5 μl of a 4×PGE2 solution (11 nM) are added, and incubation is carried out in the presence of the agonist at RT for a further 60 min (volume: ˜20 μl) before the reaction is then stopped by adding 5 μl of lysis buffer and incubated at RT for a further 20 min (volume: ˜25 μl). The cell lysate is then transferred into a measuring plate and measured in accordance with the manufacturer's information (cyclic AMP kit Cisbio International #62AMPPEC).

[2] = biological target: T1, human prostaglandin E2 (subtype EP2) receptor; assay: cAMP agonism assay (HTRF cAMP); format: cell-based
Procedure: as §1, §2
as §3, with “μl” for “μl,”
After incubation at room temperature (RT; volume: ˜15 μl) for 60 minutes, the reaction is then stopped by adding 5 μl of lysis buffer and incubated at RT for a further 20 min (volume: ˜20 μl). The cell lysate is then transferred into a measuring plate and measured in accordance with the manufacturer's information (cyclic AMP kit Cisbio International #62AMPPEC).

[3] = cAMP assay in presence of PGE2, read-out: Antagonism [IC50
[4] = cAMP assay, no PGE2 added, read-out: Agonism [ED50

| Compound | suppression of cumulus expansion (cumulus-oocyte complexes; at a concentration of 100-200 μM) | IC50 [1, 3] | EC50 [2, 4] | IC50 ([1]; read-out: IC50 in the antagonism test) | EC50 ([2]; read-out: EC50 in the cellular agonism test) | suppression of cumulus expansion (cumulus-oocyte complexes; at one tenth of the concentration (of 100-200 μM)) |
| --- | --- | --- | --- | --- | --- | --- |
| CC(C)Oc1ccc2c(=O)c3cc(C(=O)O)ccc3oc2c1 [AH 6809, reference compound] | about 20% |  |  |  |  |  |
| O=C(NC1CCN(c2nncc3ccc(Br)cc23)CC1)c1cccc(Cl)c1Cl [Example 1, N-[1-(7-Bromo-phthalazin-1-yl)-piperidin-4-yl]-2,3-dichloro-benzamide] |  | 300 nM | > 19000 nM |  |  |  |
| O=C(NC1CCN(c2nncc3cc(Br)ccc23)CC1)c1cccc(Cl)c1Cl [Example 2, N-[1-(6-Bromo-phthalazin-1-yl)-piperidin-4-yl]-2,3-dichloro-benzamide] |  |  | > 19000 nM | 200 nM | > 19000 nM | 35% |
| Cc1nnc(N2CCC(NC(=O)c3cccc(Cl)c3Cl)CC2)c2cc(Br)ccc12 [Example 3, N-[1-(7-Bromo-4-methyl-phthalazin-1-yl)-piperidin-4-yl]-2,3-dichloro-benzamide] |  | 700 nM | > 19000 nM |  |  |  |
| Cc1nnc(N2CCC(NC(=O)c3cccc(Cl)c3Cl)CC2)c2ccc(Br)cc12 [Example 4, N-[1-(6-Bromo-4-methyl-phthalazin-1-yl)-piperidin-4-yl]-2,3-dichloro-benzamide] |  | 500 nM | > 19000 nM |  |  |  |
